US20240327351A1, “AMIDE AND ETHER SUBSTITUTED N-(1H-INDOL-7-YL)BENZENESULFONAMIDES AND USES THEREOF” (TRIANA BIOMEDICINES, INC., priority 2021, published 2024)

Tests used:
[1] = target: DCAF15/RBM39 (Homo sapiens, UniProt Q14498+Q66K64); experiment: AlphaLISA compound-induced DCAF15-RBM39 ternary complex formation; type: binding; conditions: His-tagged DCAF15 complex and biotin-carrying RBM39
Description: Example 6: Quantitative Evaluation of Compound-Induced Ternary Complex Formation Using Amplified Luminescent Proximity Homogeneous Assay
Compound-induced DCAF15-RBM39 ternary complex formation was monitored using AlphaLISA® assays (Perkin Elmer, Waltham, MA). Test compounds were first collected in a 384-well microplate (cat. #781280, Grenier Bio-One, Monroe, NC) as 2 mM stocks in 100% dimethyl sulfoxide (DMSO). These stocks were then serially diluted in DMSO by 3-fold into a new plate (cat. #781280, Grenier Bio-One, Monroe, NC) using a Mosquito HTS dispenser (mosquito@ HTS, SPT Labtech, Boston, MA). 0.2 ul of these diluted stocks were then dispensed into a 384-well Optiplate (cat. #6007290, Perkin Elmer, Waltham, MA) in duplicate wells, to assemble the final assay plate consisting of duplicated dose ranges. Separately, a protein mixture consisting of His-tagged DCAF15 complex and biotin-carrying RBM39, each at 408 nM (2.04×), was prepared in 50 mM HEPES, pH 7.5, 100 mM NaCl, 2 mM MgCl2, 0.1% BSA, 2 mM TCEP, 0.05% Tween-20 (dilution buffer). 9.8 ul of this protein mixture was then mixed with the compounds in the assay plate and incubated for one hour at room temperature. Reaction mixtures with no compounds added were included as negative controls, while a His-tagged and biotinylated GST protein was included to track general assay performance. Nickel Chelate AlphaLISA Acceptor beads (cat. #AL108M, Perkin Elmer, MA) and AlphaScreen Streptavidin Donor beads (cat. #6760002, Perkin Elmer, Waltham, MA) were prepared separately in the dilution buffer as 4× stocks (80 ug/ml). The beads were then added to the assay plate sequentially with incubation at room temperature for 1-2 hours after each addition. Signals were recorded using EnVision 2104 Multilabel Plate Reader (Perkin Elmer, Waltham, MA) and titration curves were generated in GraphPad Prism (7.00, GraphPad, La Jolla, CA).

[2] = target: DCAF15 (Homo sapiens, UniProt Q66K64); experiment: HTRF competition assay, binary interaction between compounds and DCAF15; type: binding; conditions: competition with Alexa Fluor 647 tracer, His-tagged DCAF15 complex
Description: Example 7: Measurement of Binary Interaction Between Compounds And DCAF15 Using Homogeneous Time Resolved Fluorescence (HTRF)
DCAF15 interactions with test compounds were monitored using HTRF competition assays (Cisbio, Bedford, MA). Test compounds were first collected in a 384-well microplate (cat. #781280, Grenier Bio-One, Monroe, NC) as 10 mM stocks in 100% dimethyl sulfoxide (DMSO). A second stock plate (cat. #781280, Grenier Bio-One, Monroe, NC) was prepared through 3-fold serial dilution in DMSO of the afore-mentioned stocks using a Mosquito HTS dispenser (mosquito@ HTS, SPT Labtech, Boston, MA). 0.2 ul of these diluted stocks were then dispensed into a 384-well Optiplate (cat. #6007290, Perkin Elmer, Waltham, MA) in duplicate wells, to assemble the assay plate. The tracer molecule containing an Alexa Fluor 647 probe was prepared in 25 mM HEPES pH 7.5, 100 mM NaCl, 0.1 mg/ml BSA, 0.005% Tween 20, 0.5 mM TCEP (dilution buffer) to 612 nM (2.04×). Separately, His-tagged DCAF15 complex was prepared at 32 nM (4×) in the dilution buffer, and mAb Anti-6His-Eu cryptate Gold (cat. #61H12KLA, Cisbio, Bedford, MA) at 4× dilution in the detection buffer (cat. #61 DB9RDF, Cisbio, Bedford, MA). These two solutions were mixed and incubated for 15 min at room temperature. 9.8 ul of the tracer solution and 10 ul of the DCAF15/mAb Anti-6His-Eu cryptate Gold mixture were added sequentially to each well in the assay plate. Reaction mixtures with no DCAF15 added were included as positive controls. The final mixture was incubated for an hour at room temperature and spun down briefly before data collection at 615 nm and 666 nm using En Vision 2104 Multilabel Plate Reader (Perkin Elmer, Bedford, MA). Binding was estimated based on ratiometric analysis and titration curves were generated in GraphPad Prism (7.00, GraphPad, La Jolla, CA).

| EC50 [1] | IC50 [2] | SMILES |
| --- | --- | --- |
| 1000 to 10000 nM | 1000 to 10000 nM | CCN(CC)C(=O)c1ccc(CNC(=O)c2cccc(S(=O)(=O)Nc3ccc(Cl)c4c(Cl)c[nH]c34)c2F)cc1 [Compound 170] |
| 1000 to 10000 nM | 1000 to 10000 nM | CCN(CC)C(=O)c1ccc(CNC(=O)c2ccc(S(=O)(=O)Nc3ccc(Cl)c4c(Cl)c[nH]c34)c(F)c2)cc1 [Compound 171] |
| 1000 to 10000 nM | 1000 to 10000 nM | Cc1ccccc1Oc1ccccc1CNC(=O)c1cccc(S(=O)(=O)Nc2ccc(Cl)c3c(Cl)c[nH]c23)c1F [Compound 172] |
| > 100000 nM | > 100000 nM | Cc1ccccc1Oc1ccccc1CNC(=O)c1ccc(S(=O)(=O)Nc2ccc(Cl)c3c(Cl)c[nH]c23)c(F)c1 [Compound 173] |
| < 1000 nM | 1000 to 10000 nM | Cc1cc(CNC(=O)c2cccc(S(=O)(=O)Nc3ccc(Cl)c4c(Cl)c[nH]c34)c2F)nn1C [Compound 174] |
| < 1000 nM | 1000 to 10000 nM | Cc1cc(CNC(=O)c2ccc(S(=O)(=O)Nc3ccc(Cl)c4c(Cl)c[nH]c34)c(F)c2)nn1C [Compound 175] |
| < 1000 nM | 1000 to 10000 nM | CCc1nc(CN(C)C(=O)c2cccc(S(=O)(=O)Nc3ccc(Cl)c4c(Cl)c[nH]c34)c2F)no1 [Compound 176] |
| < 1000 nM | 1000 to 10000 nM | CCc1nc(CN(C)C(=O)c2ccc(S(=O)(=O)Nc3ccc(Cl)c4c(Cl)c[nH]c34)c(F)c2)no1 [Compound 177] |
| 1000 to 10000 nM | 1000 to 10000 nM | Cc1ccnc(CNC(=O)c2cccc(S(=O)(=O)Nc3ccc(Cl)c4c(Cl)c[nH]c34)c2F)c1 [Compound 178] |
| < 1000 nM | 1000 to 10000 nM | Cc1ccnc(CNC(=O)c2ccc(S(=O)(=O)Nc3ccc(Cl)c4c(Cl)c[nH]c34)c(F)c2)c1 [Compound 179] |
| 1000 to 10000 nM | 1000 to 10000 nM | Cc1ccnc([C@@H](NC(=O)c2ccc(S(=O)(=O)Nc3ccc(Cl)c4c(Cl)c[nH]c34)c(F)c2)C2CC2)c1 [Compound 180] |
| 1000 to 10000 nM | 1000 to 10000 nM | COc1cccc(Oc2ccc(CNC(=O)c3cccc(S(=O)(=O)Nc4ccc(Cl)c5c(Cl)c[nH]c45)c3F)cn2)c1 [Compound 181] |
| > 100000 nM | > 100000 nM | COc1cccc(Oc2ccc(CNC(=O)c3ccc(S(=O)(=O)Nc4ccc(Cl)c5c(Cl)c[nH]c45)c(F)c3)cn2)c1 [Compound 182] |
| < 1000 nM | 1000 to 10000 nM | Cc1cnc(CNC(=O)c2cccc(S(=O)(=O)Nc3ccc(Cl)c4c(Cl)c[nH]c34)c2F)cn1 [Compound 183] |
| > 100000 nM | < 1000 nM | Cc1cnc(CNC(=O)c2ccc(S(=O)(=O)Nc3ccc(Cl)c4c(Cl)c[nH]c34)c(F)c2)cn1 [Compound 184] |
| 1000 to 10000 nM | 1000 to 10000 nM | Cc1ccnc([C@@H](NC(=O)c2cccc(S(=O)(=O)Nc3ccc(Cl)c4c(Cl)c[nH]c34)c2F)C2CC2)c1 [Compound 185] |
| 1000 to 10000 nM | 1000 to 10000 nM | O=C(NCCOCC1CC1)c1cccc(S(=O)(=O)Nc2ccc(Cl)c3c(Cl)c[nH]c23)c1F [Compound 186] |
| < 1000 nM | 1000 to 10000 nM | O=C(NCCOCC1CC1)c1ccc(S(=O)(=O)Nc2ccc(Cl)c3c(Cl)c[nH]c23)c(F)c1 [Compound 187] |
| < 1000 nM | 1000 to 10000 nM | O=C(NCCOC1CCS(=O)(=O)CC1)c1cccc(S(=O)(=O)Nc2ccc(Cl)c3c(Cl)c[nH]c23)c1F [Compound 188] |
| < 1000 nM | < 1000 nM | O=C(NCCOC1CCS(=O)(=O)CC1)c1ccc(S(=O)(=O)Nc2ccc(Cl)c3c(Cl)c[nH]c23)c(F)c1 [Compound 189] |
| < 1000 nM | 1000 to 10000 nM | CCS(=O)(=O)CCNC(=O)c1cccc(S(=O)(=O)Nc2ccc(Cl)c3c(Cl)c[nH]c23)c1F [Compound 190] |

| EC50 [1] | IC50 [2] | SMILES |
| --- | --- | --- |
| < 1000 nM | < 1000 nM | CCS(=O)(=O)CCNC(=O)c1ccc(S(=O)(=O)Nc2ccc(Cl)c3c(Cl)c[nH]c23)c(F)c1 [Compound 191] |
| < 1000 nM | < 1000 nM | CN1CC(CCNC(=O)c2cccc(S(=O)(=O)Nc3ccc(Cl)c4c(Cl)c[nH]c34)c2F)C1 [Compound 192] |
| < 1000 nM | 1000 to 10000 nM | CN1CC(CCNC(=O)c2ccc(S(=O)(=O)Nc3ccc(Cl)c4c(Cl)c[nH]c34)c(F)c2)C1 [Compound 193] |
| 1000 to 10000 nM | 1000 to 10000 nM | CN(C)C(=O)c1ccc(CCNC(=O)c2cccc(S(=O)(=O)Nc3ccc(Cl)c4c(Cl)c[nH]c34)c2F)cc1 [Compound 194] |
| 1000 to 10000 nM | 1000 to 10000 nM | CN(C)C(=O)c1ccc(CCNC(=O)c2ccc(S(=O)(=O)Nc3ccc(Cl)c4c(Cl)c[nH]c34)c(F)c2)cc1 [Compound 195] |
| 1000 to 10000 nM | 1000 to 10000 nM | CN(C)C(=O)C[C@H](NC(=O)c1cccc(S(=O)(=O)Nc2ccc(Cl)c3c(Cl)c[nH]c23)c1F)c1ccccc1 [Compound 196] |
| < 1000 nM | 1000 to 10000 nM | CN(C)C(=O)C[C@H](NC(=O)c1ccc(S(=O)(=O)Nc2ccc(Cl)c3c(Cl)c[nH]c23)c(F)c1)c1ccccc1 [Compound 197] |
| 1000 to 10000 nM | 1000 to 10000 nM | Cc1ccc(CCNC(=O)c2cccc(S(=O)(=O)Nc3ccc(Cl)c4c(Cl)c[nH]c34)c2F)o1 [Compound 198] |
| 1000 to 10000 nM | 1000 to 10000 nM | Cc1ccc(CCNC(=O)c2ccc(S(=O)(=O)Nc3ccc(Cl)c4c(Cl)c[nH]c34)c(F)c2)o1 [Compound 199] |
| < 1000 nM | < 1000 nM | O=C(NCCc1ccccn1)c1cccc(S(=O)(=O)Nc2ccc(Cl)c3c(Cl)c[nH]c23)c1F [Compound 200] |
| < 1000 nM | 1000 to 10000 nM | O=C(NCCc1ccccn1)c1ccc(S(=O)(=O)Nc2ccc(Cl)c3c(Cl)c[nH]c23)c(F)c1 [Compound 201] |
| < 1000 nM | 1000 to 10000 nM | COCCOCCCNC(=O)c1cccc(S(=O)(=O)Nc2ccc(Cl)c3c(Cl)c[nH]c23)c1F [Compound 202] |
| < 1000 nM | 1000 to 10000 nM | COCCOCCCNC(=O)c1ccc(S(=O)(=O)Nc2ccc(Cl)c3c(Cl)c[nH]c23)c(F)c1 [Compound 203] |
| 1000 to 10000 nM | 1000 to 10000 nM | O=C(NCCCOCc1ccccc1)c1cccc(S(=O)(=O)Nc2ccc(Cl)c3c(Cl)c[nH]c23)c1F [Compound 204] |
| < 1000 nM | > 100000 nM | O=C(NCCCOCc1ccccc1)c1ccc(S(=O)(=O)Nc2ccc(Cl)c3c(Cl)c[nH]c23)c(F)c1 [Compound 205] |
| < 1000 nM | < 1000 nM | O=C(NCCCC(=O)N1CCCC1)c1cccc(S(=O)(=O)Nc2ccc(Cl)c3c(Cl)c[nH]c23)c1F [Compound 206] |
| < 1000 nM | < 1000 nM | O=C(NCCCC(=O)N1CCCC1)c1ccc(S(=O)(=O)Nc2ccc(Cl)c3c(Cl)c[nH]c23)c(F)c1 [Compound 207] |
| > 100000 nM | > 100000 nM | O=C(NCCCc1ccc(Cl)cc1)c1cccc(S(=O)(=O)Nc2ccc(Cl)c3c(Cl)c[nH]c23)c1F [Compound 208] |
| 1000 to 10000 nM | > 100000 nM | O=C(NCCCc1ccc(Cl)cc1)c1ccc(S(=O)(=O)Nc2ccc(Cl)c3c(Cl)c[nH]c23)c(F)c1 [Compound 209] |
| 1000 to 10000 nM | 1000 to 10000 nM | CC[C@H](NC(=O)c1cccc(S(=O)(=O)Nc2ccc(Cl)c3c(Cl)c[nH]c23)c1F)c1ccc2c(c1)OCCO2 [Compound 210] |
| 1000 to 10000 nM | 1000 to 10000 nM | CC[C@H](NC(=O)c1ccc(S(=O)(=O)Nc2ccc(Cl)c3c(Cl)c[nH]c23)c(F)c1)c1ccc2c(c1)OCCO2 [Compound 211] |
